{"source": "patent US20080254152A1", "about": "“Methods for Reducing the Effects of Stress on Skin Condition” (priority 2003, published 2008)", "key": {"[1]": {"system": "IL-6 expression by Human Umbilical Vein Endothelial Cells", "assay": "IL-6 ELISA of HUVEC tissue culture supernatant", "assay_type": "cell-based", "details": "without PMA", "procedure": "(§1) An in vitro model has been developed to investigate the impact of chronic stress on the inflammatory status of endothelial cells. • a. Cells are grown in 6-well (9.5 cm^2) plates. • b. […] Tissue culture supernatant and cell pellets are harvested at timepoint T0. • d. The cells are oxidatively stressed with 1 μM Phorbol Myristate Acetate (PMA). • e. Tissue culture supernatant and cell pellets were harvested at 6, 24 and 48 hours (T6, T24 and T48, respectively) post-PMA treatment. • f. All tissue culture supernatant was assayed for Lactate Dehydrogenase (LDH), as a measure of cytotoxicity, and Interleukin-6 synthesis. • g. All cells were counted (Beckman Coulter Counter) and pelleted and cell lysate assayed for ICAM-1 expression (Intra Cellular Adhesion Molecule 1)."}, "[2]": {"system": "ICAM-1 expression in HUVECs", "assay": "ICAM-1 expression in HUVECs pre-treated 5 days with dexamethasone, then oxidatively stressed with PMA (ELISA)", "assay_type": "cell-based, Human", "details": "chronic 1 μM glucocorticoid 5 days, then 1 μM PMA; HUVEC; FIG. 1", "procedure": "as §1\nHUVEC cells (Human umbilical vein endothelial cells, TCS Biologicals) were cultured and passaged in EGM-2 (Endothelial growth medium, Biowhittaker) supplemented with heparin, VEGF (vascular endothelial growth factor), gentamicin sulphate, ascorbic acid, HEGF (Human endothelial growth factor), hydrocortisone, HFGF-B (Human fibroblast growth factor B), R3-IGF-1 (long R insulin-like growth factor 1) and FBS (foetal bovine serum).\nCells were routinely plated out in 6-well tissue culture dishes, at a seeding density of ˜5000 cells/cm^2 in 2 ml complete medium/well, 48 hours before starting the experiment, and incubated at 37° C. in 5% CO2.\nPre-treatment and test solutions were prepared in EGM-2 containing all supplements except hydrocortisone.\nFollowing this, the cells were oxidatively stressed for 24 hours with 1 μM PMA (Sigma P8139).\nReceptor antagonists were added to the cells during the pre-treatment period. These included the Glucocorticoid Receptor Antagonist; 2 μM Mifepristone (Sigma M8046) and two CRH receptor antagonists; 200 nM Astressin (Sigma A4933) and 200 nM α-helical CRF peptide antagonist (Sigma C2917).\nAny change in cell morphology was noted before the cells were harvested. Both the tissue culture supernatant and the endothelial cells were harvested after the five-day pre-treatment period (T0), at 6 hours and 24 hours after addition of PMA (T6 and T24) and at 24 hours after removal of the PMA (T48). All tissue culture supernatants were stored at −20° C.\nAll cell pellets were lysed on ice for 30 minutes in 1 ml cell lysis buffer per 2.5×10^6 cells. The lysis buffer contained 1% NP-40, 0.1% sodium deoxycholate, 0.1% SDS, 6 mM sodium chloride and 0.05M Tris at pH 7.6. Protease inhibitor cocktail ([…]; Sigma P8340) was added prior to use at a level of 10 μl per ml of lysis buffer. The partially lysed cell pellets were completely homogenised with a pellet pestle and unwanted cell debris removed by centrifugation for 20 minutes at 20,000 g at 4° C. The clarified cell lysate was frozen at −80° C. until needed.\nThe total protein concentration of each cell lysate was measured using the Pierce BCA protein assay kit. A set of eight standard solutions ranging from 0 to 1200 μg/ml protein was prepared from the supplied 2 mg/ml BSA stock solution. 10 μl of standard or cell lysate was added to duplicate wells of a flat-bottomed, 96-well microtitre plate. The reagent solution was prepared according to the kit instructions from 50 parts reagent A and 1 part reagent B. 200 μl of the final reagent was added to each well of the microtitre plate. The plate was mixed, covered and incubated at 37° C. for 30 minutes and absorbance read at 562 nm.\nICAM-1 protein in each cell lysate was estimated using the Human sICAM-1 DuoSet ELISA kit (R&D Systems DY720) according to the manufacturer's instructions.\nThe capture antibody was diluted to a final concentration of 4 μg/ml in PBS and 100 μl was used to coat each well of a 96-well microtitre plate overnight at room temperature. The plate was then washed three times with wash buffer (0.05% Tween 20 in PBS)."}, "[3]": {"system": "procollagen-1 expression in human neonatal dermal fibroblast cells", "assay": "Procollagen I C-peptide EIA in neonatal-derived human dermal fibroblasts after chronic dexamethasone and PMA", "assay_type": "cell-based", "details": "chronic dexamethasone then 1 μM PMA; T6; neonatal fibroblasts; FIG. 8", "procedure": "In this study, to understand better the effect of chronic stress on dermal matrix remodelling in the skin, we have therefore measured changes in markers of dermal matrix degradation (MMP-1) and dermal matrix synthesis (Procollagen I) in chronically glucocorticoid-treated primary human dermal fibroblasts, following acute stress with PMA. The experimental approach is similar to that described in example 1 except that the cells tested are dermal fibroblasts and cells are assayed for expression of procollagen-1, MMP-1 and MMP-9 expression.\nPrimary human dermal fibroblast cells were cultured and passaged in DMEM (Gibco) supplemented with 10% FBS (foetal bovine serum). Cells were routinely plated out in 6-well tissue culture dishes, at a seeding density of ˜5000 cells/cm^2 in 2 ml complete medium/well for 24 hours, and incubated at 37° C. in 5% CO2. Media was removed and cells grown in DMEM & 1% FBS, 24 hours prior to treatments.\nPre-treatment and test solutions were prepared in DMEM containing low serum (1% FBS). […] Following this, the cells were oxidatively stressed for 24 hours with 1 μM PMA (Sigma P8139).\nCollagen I is synthesised as a precursor molecule, Procollagen I. The amount of free propeptide therefore, reflects stoichiometrically, the amount of collagen I synthesised. The Procollagen Type I C-peptide Enzyme Immunoassay (EIA) kit allows for the quantitative determination of Procollagen Type I C-peptide (PIP).\nEight PIP standards were prepared in sample diluent at concentrations ranging from 0 to 640 ng/ml. 100 μl of antibody-Peroxidase conjugate solution and 20 μl of cell lysate (1 μg protein) or standard was added to duplicate wells. The plate was sealed and incubated at 37° C. for 3 hours before being washed four times with 400 μl of PBS. Each well then received 100 μl of substrate solution and the plate incubated at room temperature, on the benchtop, for 15 minutes. After this period, 100 μl stop solution was added to each well and absorbance measured at 450 nm with a plate reader.\nA standard curve was plotted of mean absorbance versus PIP concentration and the line of best fit calculated by regression analysis. The unknown concentration of PIP in all the samples was estimated from this.\nThe same methods were used as described in Example 2, except that various test agents were added to the cells during the pre-treatment period."}}}
{"smiles": "C[C@@H]1C[C@H]2[C@@H]3CCC4=CC(=O)C=C[C@]4(C)[C@@]3(F)[C@@H](O)C[C@]2(C)[C@@]1(O)C(=O)CO", "note": "[Dexamethasone]", "values": [{"measurement": "IL-6 secretion with glucocorticoid alone", "setting": "[1]", "result": "did not cause increased secretion of IL-6"}, {"measurement": "Induction of ICAM-1 synthesis after PMA, glucocorticoid pre-treated vs not pre-treated cells", "setting": "[2]", "result": "significantly greater"}, {"measurement": "Inhibition of Procollagen-1 synthesis vs control, untreated cells", "setting": "[3]", "result": "~50", "unit": "%"}]}
